Values quoted from earlier work in US11798661B2, “Methods for lowering blood pressure with a dihydropyridine-type calcium channel blocker pharmaceutical composition” (A[…] Limited, priority 2018, dated 2023).

Details: co-administration of 240 mL grapefruit juice with a single oral dose of amlodipine 10 mg

For `CCOC(=O)C1=C(COCCN)NC(C)=C(C(=O)OC)C1c1ccccc1Cl` (racemic) [amlodipine, (RS)-3-ethyl 5-methyl 2-[(2-aminoethoxy)methyl]-4-(2-chlorophenyl)-6-methyl-1,4-dihydropyridine-3,5-dicarboxylate], the “effect on the pharmacokinetics of amlodipine” value is given as “no significant effect”.
